The values that follow are results of earlier work, collected in patent US9421238B2 (priority 2013, dated 2016).

SMILES strings stand for the structures. Like-named read-outs stand apart in the source and are kept apart here.

The conditions of this data set: rat, CO-60 in liver.

As for `N[C@@H](CCC(=O)N[C@@H](CS)C(=O)NCC(=O)O)C(=O)O` [Plain glutathione, glutathione], for the setting “intravenous administration”, the removal of toxin is 64%. Moreover, where the note is “oral administration”, the removal of toxin is reported as 0% and the toxin remained/remaining is 100%.
